This is an account of results in publication PMC10826043 (BMC Complementary Medicine and Therapies, 2024).

For one experiment, the target named is T1, α-amylase from porcine pancreas (Sus scrofa, UniProt P00690).
T1 construct: α-amylase from porcine pancreas (A3176); purchased Sigma-Aldrich (Germany) A3176; host or cells: porcine pancreas (tissue-derived)
T1 sequence (P00690 16-511): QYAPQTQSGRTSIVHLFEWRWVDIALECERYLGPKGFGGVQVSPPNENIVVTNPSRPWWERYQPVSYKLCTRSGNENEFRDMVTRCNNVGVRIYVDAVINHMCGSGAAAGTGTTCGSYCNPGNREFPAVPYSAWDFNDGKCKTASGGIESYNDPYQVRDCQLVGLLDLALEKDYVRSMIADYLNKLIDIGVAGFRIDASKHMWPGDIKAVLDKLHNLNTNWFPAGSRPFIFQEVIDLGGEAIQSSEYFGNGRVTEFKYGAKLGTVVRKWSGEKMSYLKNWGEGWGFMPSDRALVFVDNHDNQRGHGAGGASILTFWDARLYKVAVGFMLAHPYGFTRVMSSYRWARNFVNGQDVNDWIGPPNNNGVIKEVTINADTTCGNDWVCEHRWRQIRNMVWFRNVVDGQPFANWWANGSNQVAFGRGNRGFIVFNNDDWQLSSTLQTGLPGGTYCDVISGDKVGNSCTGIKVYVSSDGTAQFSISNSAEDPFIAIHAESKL
The experiment is described as follows: In vitro pancreatic α-amylase inhibitory assay (starch/DNS, 540 nm). Type of experiment: biochemical. Particulars: 1% starch, pH 6.9, 25 °C, read-out: IC50 (α-amylase inhibition). On the procedure: Analytical purity grade solvents were used throughout the study.
With reference to the established technique, the assay was carried out quantitatively with minor adjustments. Initially, 500µL test solution was preincubated with 500µL α-amylase solution (0.55 unit/mL) at 25°C for 10 min. The α-amylase was prepared in a buffer solution (0.02M sodium phosphate pH 6.9 with 0.006M NaCl). Afterwards, 500µL of 1% w/v starch in buffer solution was mixed in and left to incubate for 10 min at 25°C. To bring the reaction to a halt, 1mL dinitrosalicylic acid (DNS) was introduced and the mixture was placed in a boiling water bath for 3.5 min. After cooling to room temperature, the mixture was then diluted using 10mL distilled water and absorbance was measured using a Laxco spectrophotometer (α1502, Laxco Inc., USA) at λ 540nm. Blanks used throughout the experiment were made by adding pure buffer instead of α-amylase solution. […] To calculate the pancreatic α-amylase inhibitory activity, the following equation was used: %Inhibtion=100×1-Abs540nmExtract-Abs540nmPositivecontrol/Abs540nmNegativecontrol-Abs540nmPositivecontrol
The term IC50 denotes the concentration at which inhibition is half-maximal. For `OCC1=C[C@@H](O)[C@@H]2C=CO[C@@H](O[C@@H]3O[C@H](CO)[C@@H](O)[C@H](O)[C@H]3O)[C@H]12` [Aucubin], the IC50 stood at 2370 µM. On the same count and under the same terms, next, `Oc1cc(O)c2c(c1)OC(c1ccc(O)c(O)c1)C(O)C2` (stereo not shown) [Catechin]: 5040 ± 40 µM; `O=C(/C=C/c1ccc(O)c(O)c1)O[C@@H]1C[C@](O)(C(=O)O)C[C@@H](O)[C@H]1O` [Chlorogenic Acid, chlorogenic acid]: 7390 ± 220 µM; `O=c1cc(-c2ccc(O)c(O)c2)oc2cc(O)cc(O)c12` [Luteolin]: 6320 ± 30 µM. As to `O=c1c(O)c(-c2cc(O)c(O)c(O)c2)oc2cc(O)cc(O)c12` [Myricetin], the IC50 was found to be 4910 ± 60 µM. On the same count and under the same terms, next, `COc1c(-c2ccc(O)c(O)c2)oc2cc(O)cc(O)c2c1=O` [Quercetin-3-methylether, quercetin-3-methyl ether]: 6370 ± 110 µM. Same read-out and setting: next, `COc1cc(O)c2c(=O)c(O)c(-c3ccc(O)c(O)c3)oc2c1` [Quercetin-7-methylether, quercetin-7-methyl ether]: 5010 ± 70 µM. For the molecule `O=C(/C=C/c1ccc(O)c(O)c1)O[C@H](Cc1ccc(O)c(O)c1)C(=O)O` [Rosmarinic Acid, rosmarinic acid], the half-inhibitory concentration (IC50) amounted to 7000 ± 90 µM.

The target of another experiment is α-amylase.
Experiment: not given
Particulars: validation set, supplement ref [3]; cited from earlier work.
For the molecule `O=c1cc(-c2ccc(O)c(O)c2)oc2cc(O)ccc12` [7, 3', 4'-trihydroxyflavone], the concentration for half-maximal inhibition (IC50) is 16.3 ± 0.52 µM.

As for `O=C(O)C1OC(Oc2cc(O)c3c(=O)cc(-c4ccc(O)cc4)oc3c2)C(O)C(O)C1O` [Apigenin-7-O-β-D-glucopyranuronide], the half-maximal inhibitory concentration (IC50) was 10.4 ± 2.51 µM. For the molecule `O=c1cc(-c2ccc(O)cc2)oc2cc(O)cc(O)c12` [Apigenin], the concentration for half-maximal inhibition (IC50) is 12.2 ± 2.14 µM.

On to `COc1ccc(-c2oc3cc(O)cc(O)c3c(=O)c2O)cc1` [Kaempferide], for which the IC50 was 22.9 ± 3.17 µM.

For the molecule `Oc1cc(O)c2c(c1)O[C@H](c1ccc(O)c(O)c1)[C@H](O)C2` [L-epicatechin], the 50% inhibitory concentration (IC50) is 31.5 ± 2.21 µM.

With `O=c1cc(-c2ccc(O)c(O)c2)oc2cc(O)cc(O)c12` [Luteolin], the concentration for half-maximal inhibition (IC50) is 14.6 ± 0.74 µM. In the case of `O=C1C[C@@H](c2ccc(O)cc2)Oc2cc(O)cc(O)c21` [Naringenin], the IC50 was 21.9 ± 3.21 µM. As to `O=c1c(O)c(-c2ccc(O)c(O)c2)oc2cc(OC3OC(CO)C(O)C(O)C3O)c(O)c(O)c12` [Quercetagetin-7-O-β-D-glucopyranoside], the IC50 is 8.04 ± 0.69 µM. With `COc1c(-c2ccc(O)c(O)c2)oc2cc(O)cc(O)c2c1=O` [Quercetin-3-methylether, quercetin-3-methyl ether], the half-maximal inhibitory concentration (IC50) was 13.6 ± 2.04 µM.

Staying with this experiment, now noted: validation set, supplement ref [4]; cited from earlier work.
In the case of `O=C(O[C@@H]1Cc2c(O)cc(O)cc2O[C@@H]1c1cc(O)c(O)c(O)c1)c1cc(O)c(O)c(O)c1` [Epigallocatechin gallate], the concentration for half-maximal inhibition (IC50) was 11.5 ± 0.02 µM.

Staying with this experiment, now noted: validation set, supplement ref [5]; cited from earlier work.
Take `OC[C@H]1O[C@@H](Oc2cc3c(O[C@@H]4O[C@H](CO)[C@@H](O)[C@H](O)[C@H]4O)cc(O)cc3[o+]c2-c2ccc(O)c(O)c2)[C@H](O)[C@@H](O)[C@@H]1O` [Cyanidin-3,5-glucoside]: the IC50 is 40 ± 7 µM. In the case of `OC[C@H]1O[C@@H](Oc2cc3c(O)cc(O)cc3[o+]c2-c2ccc(O)c(O)c2)[C@H](O)[C@@H](O)[C@@H]1O` [Cyanidin-3-glucoside], the IC50 was 24 ± 3 µM. With `COc1cc(-c2[o+]c3cc(O)cc(O)c3cc2O[C@@H]2O[C@H](CO)[C@@H](O)[C@H](O)[C@H]2O)ccc1O` [Peonidin-3-glucoside], the IC50 is 75 ± 7 µM.

The same experiment, now with this note: validation set, supplement ref [6]; cited from earlier work.
For `C[C@@H]1O[C@@H](OC[C@H]2O[C@@H](Oc3cc4c(O)cc(O)cc4[o+]c3-c3ccc(O)c(O)c3)[C@H](O)[C@@H](O)[C@@H]2O)[C@H](O)[C@H](O)[C@H]1O` [Cyanidin-3-rutinoside], the concentration for half-maximal inhibition (IC50) was 24.4 ± 0.1 µM.

Still in this experiment, the particulars now being: validation set, supplement ref [7]; cited from earlier work.
As for `O=C(O)c1cc(O)c(O)c(O)c1` [Gallic acid], the concentration for half-maximal inhibition (IC50) was 27.8 ± 2.06 µM.

The same experiment, now with this note: validation set, supplement ref [8]; cited from earlier work.
For `O=c1c(O)c(-c2ccc(O)cc2)oc2cc(O)ccc12` [3,7,4'-Trihydroxyflavone], the IC50 was 59 ± 4 µM. As to `O=c1cc(-c2ccc(O)c(O)c2)oc2cccc(O)c12` [5,3',4'-Trihydroxyflavone], the half-inhibitory concentration (IC50) was 148 ± 5 µM. With `O=c1cc(-c2ccc(O)c(O)c2)oc2cc(O)c(Cl)c(O)c12` [6-Chloro-3',4',5,7-tetrahydroxyflavone], the IC50 was 44 ± 3 µM. `O=c1c(O)c(-c2cc(O)c(O)c(O)c2)oc2cc(O)cc(O)c12` [Myricetin]: the IC50 was 107 ± 6 µM.

Staying with this experiment, now noted: validation set, supplement ref [9]; cited from earlier work.
For `Oc1cc(O)c2c(c1)OC(c1ccc(O)c(O)c1)C(O)C2` (stereo not shown) [Catechin], the concentration for half-maximal inhibition (IC50) is 1160 ± 24 µM.

Take `O=C(/C=C/c1ccc(O)c(O)c1)O[C@@H]1C[C@](O)(C(=O)O)C[C@@H](O)[C@H]1O` [Chlorogenic Acid, chlorogenic acid]: the half-inhibitory concentration (IC50) was 1050 ± 18 µM.

The experiment is the same for the next values; noted with them: validation set, supplement ref [10]; cited from earlier work.
On to `O=C(O)c1ccc(O)c(O)c1` [Protocatechuic acid], for which the IC50 was 2650 ± 160 µM. As to `COc1cc(C(=O)O)cc(OC)c1O` [Syringic acid], the IC50 is 1980 ± 10 µM. In the case of `COc1cc(C(=O)O)ccc1O` [Vanillic acid], the 50% inhibitory concentration (IC50) was 2050 ± 10 µM.

Still in this experiment, the particulars now being: validation set, supplement ref [11]; cited from earlier work.
With `O=c1c(Cc2ccc(O)cc2)coc2cc(O)cc(O)c12` [5,7-dihydroxy-3-(4′-hydroxybenzyl) chromone], the IC50 is 2590 ± 50 µM. Regarding `Cc1c(O)cc2c(c1O)C(=O)C(Cc1ccc(O)cc1)CO2` (stereo not shown) [5,7-dihydroxy-6-methyl-3-(4′-hydroxybenzyl) chroman-4-one], the IC50 is 5990 ± 60 µM. Regarding `COc1cc(OC)c2c(c1C)O[C@H](c1ccc(O)cc1)CC2` [(2S)-4′-hydroxy-5,7-dimethoxy-8-methylflavan], the IC50 was 6030 ± 270 µM.

Staying with this experiment, now noted: validation set, supplement ref [12]; cited from earlier work.
Take `O=c1cc(-c2ccccc2)oc2cc(O)c(O)c(O)c12` [Baicalein]: the half-inhibitory concentration (IC50) was 11200 ± 200 µM.

As for `O=c1cc(-c2ccccc2)oc2cc(O)cc(O)c12` [Chrysin], the concentration for half-maximal inhibition (IC50) is 15300 ± 374 µM.

Consider `COc1cc(-c2oc3cc(O)cc(O)c3c(=O)c2O)ccc1O` [Isorhamnetin], for which the IC50 is 24900 ± 427 µM.

The same experiment, now with this note: validation set, supplement ref [13]; cited from earlier work.
For the molecule `O=C(O)/C=C/c1ccc(O)c(O)c1` [Caffeic acid], the half-inhibitory concentration (IC50) is 19400 µM. In the case of `O=C(O)c1ccccc1O` [Salicylic acid], the IC50 is 13000 µM. As for `COc1cc(/C=C/C(=O)O)cc(OC)c1O` [Sinapic acid], the IC50 was 37000 µM. Regarding `COc1cc(C=O)ccc1O` [Vanillin], the 50% inhibitory concentration (IC50) is 71000 µM. In the case of `O=C(O)C=Cc1ccc(O)cc1` [p-Coumaric acid], the IC50 is 34100 µM.
